Test results from patent US6498005B1, “Homogeneous assay methods” (Caliper Technologies Corp., priority 1998, dated 2002).

Columns and labels:
[1] = target: PKA (Bos taurus, UniProt P00517); experiment: PKA assays at different ATPγS concentrations on a microchip; type: biochemical; details: read-out: Km (Michaelis-Menten constant for the co-factor)
Procedure: (§1) A typical reaction mixture (50 μl) contained 20 mM HEPES pH 7.5, 10 mM MgCl2, 50 μM fluorescein labeled Kemptide (Research Genetics, Huntsville, Ala., USA), 500 μM ATPγS (Sigma, St. Louis, Mo., USA, #A-1388), and 1 μl of the catalytic subunit of cAMP dependent protein kinase A (Promega Corp., Madison, Wis., USA, #V5161). The approximate final concentration of the enzyme was 700 nM. […] The mixture was incubated at room temperature for 15 min and the reaction terminated by the addition of EDTA to 45 mM. As a negative control, EDTA was added to one of the reaction mixtures before the addition of the kinase. The extent of thiophosphorylation was then analyzed by capillary electrophoresis with fluorescence detection either on a Beckman P/ACE System 5500 instrument, using a 50 μm fused silica capillary with 50 mM borate, pH 8.6 as the separation buffer, or on a microfabricated chip as described in Cohen et al., Anal. Chem. 273:89-97 (1999). Substrate and product peak areas were integrated and the extent of substrate phosphorylation was determined from their ratio.
Following a 15-min incubation, the reactions were stopped by the addition of EDTA, treated with iodoacetyl-LC-biotin, and analyzed by fluorescence polarization in the presence of streptavidin. […]

[2] = target: T1, catalytic subunit of cAMP dependent protein kinase A (PKA) (Bos taurus, UniProt P00517); experiment: Homogeneous PKA kinase assay: thiophosphorylation, biotinylation, fluorescence polarization with streptavidin; type: biochemical
T1 construct: purchased Promega Corp. V5161
Procedure: as §1, with “ratio. […] The outcome of the biotinylation reaction could be determined at this point by capillary electrophoresis as described above, however, this is not required, nor is it preferred. […] An aliquot (1 μl) of the biotinylation reaction from step B was diluted in 400 μl of 50 mM HEPES, pH 7.4 and its fluorescence polarization measured. […]” for “ratio.”

**Q.** With `Nc1ncnc2c1ncn2[C@@H]1O[C@H](COP(=O)(O)OP(=O)(O)OP(O)(O)=S)[C@@H](O)[C@H]1O` [ATPγS] as the compound, how does the Km [1] read?
**A.** ~6 µM

**Q.** Which results are given for `O=S(=O)(NCCNC/C=C/c1ccc(Br)cc1)c1cccc2cnccc12` [H-89]?
**A.** IC50 ([2]; H-89 0.5-10 μM, 500 μM ATPγS, 50 μM fluorescein labeled Kemptide, 15-min incubation at room temperature, estimated from substrate conversion): ~5 µM; Ki ([2]; calculated from IC50=Ki(1+[S]/Km), ATPγS 500 μM, Km about 6 μM): ~0.06 µM
